The source of these data is patent publication EP0491828B1, “PEPTIDES FROM GTPase-ACTIVATING PROTEIN (GAP), DIAGNOSTIC AND THERAPEUTIC USE THEREOF” (CHIRON CORPORATION, priority 1989, dated 1999).

Experiment [1] deals with ras p21 protein. Briefly: Filter assay of GTP hydrolysis by ras p21 protein (32-P gamma-GTP), with and without GAP. The format is biochemical. Conditions: in the presence and absence of GAP; 30 minutes at room temperature. The method, then:
The above four peptides, in the following two experiments, were tested for their abilities to inhibit the hydrolysis of GTP by ras p21 protein, in the presence and absence of GAP. The first experiment involved peptides G65, G73 and 891. It was carried out as follows: purified wild type ras p21 protein was incubated with 0.25 µM 32-P gamma-GTP in 100 mM NaPO4, pH 6.8, 0.5 mM DTT, 0.5 mM EDTA, 0.005% Na cholate, and 0.5 mg/ml BSA for 15 minutes at 30°C. The mixture was then diluted ten fold with TNM buffer (comprising 20 mM Tris-HCl, pH 7.0, 100 mM NaCl, 5 mM MgCl2). 20 µl (0.05 µg of p21) of this mixture was then combined with 2 µl of the peptide in 25 mM NaOAc, pH 5.5 and incubated for 5 minutes at room temperature. The GAP assay, was initiated by the addition of 12 ng GAP in 5 µl TNM buffer with 1 mg/ml BSA or 5 µl TNM BSA buffer for the GAP independent reactions, and the resulting mixture was incubated for 30 minutes at room temperature. The samples were then filtered through nitrocellulose membranes and washed three times with cold TNM. The filters were dried and their radioactivity counted. […] In the presence of GAP, the radioactive ras p21-GTP complex is hydrolyzed to GDP and ras p21 protein, thus reducing the resulting amount of radioactive p21-GTP bound to the filter and consequently, the radioactive counts detected. […]

Experiment [2] concerns ras p21 protein. Briefly: GDP/GTP ratio assay of p21-GTP hydrolysis (alpha-32-P-GTP, PEI cellulose chromatography), with and without GAP. The format is biochemical. Conditions: in the presence of GAP; control peptide, no concentration stated. On the procedure: Another experiment comparing the efficacy of cGAP 13 and peptide 891 in preventing the hydrolysis of GTP was carried out as follows. The assay measured the ratio of GDP formed resulting from the hydrolysis of GTP to the remaining GTP in the assay solution. Peptides 891, cGAP 13, and G65 were separately tested in the presence and absence of GAP, Peptide G65, which served as a control, and α-32-P-GTP were used.
The assay was carried out as follows. The p21-GTP was diluted at a ratio of 1 to 10 in an assay buffer consisting of TNM at pH 7.0, 1mM DTT, and 100 µM GTP. A mixture consisting of 20 λ of p21 at 0.25 µM, and 2 λ of the peptide (in TNM, 1mM DTT and 100 µM GTP) was prepared. To this mixture was added 5 λ, i.e. 12ng of GAP diluted in TNM and 1 mg/ml BSA; for experiments without GAP, 5λ TNM/BSA were added instead. The resulting mixture was incubated for 30 minutes at room temperature. The reaction was stopped and the nucleotides were eluted from ras p21 protein with 2% SDS, 40 mM EDTA at 65°C for 5 minutes. The nucleotides were chromatographed on PEI Cellulose in 1M LiCl. GTP and GDP spots were visualized with autoradiography and identified by means of standard solutions. The individual spots from the PEI cellulose plates were scraped and the radioactivity counted.

Turning to “peptide G65: synthetic peptide corresponding to positions 876-890 of the full length GAP; served as a control (CLQKSVQHKWPTNTT; UniProt P20936 876-890, looked up, fragment)”, the “hydrolysis of GTP by ras p21 protein (radioactive counts per minute of ras p21-GTP complex on filter)” value in the experiment on ras p21 protein [1] is on record as “do not affect the hydrolysis of GTP”. For the same substance, the “hydrolysis of p21-GTP (ratio of radioactive counts of GDP over GTP)” value in the experiment on ras p21 protein [2] is “exhibits no inhibitory effect on p21-GTP hydrolysis”. For “peptide G73: synthetic peptide corresponding to positions 975-990 of the full length GAP (GNVPELPDTTEHSRTD; UniProt P20936 975-990, looked up, fragment)”, the “hydrolysis of GTP by ras p21 protein (radioactive counts per minute of ras p21-GTP complex on filter)” value in the experiment with ras p21 protein [1] was “do not affect the hydrolysis of GTP”.
